Test results taken from US9000154B2, “Rho kinase inhibitors” (Boehringer Ingelheim International GmbH, priority 2010, dated 2015).

How the values were obtained:
[1] = target: T1, ROCKII (1-543) (Homo sapiens, UniProt O75116); assay: Luciferin-Luciferase Assay (PKLight ATP detection); assay type: biochemical; parameters: ROCKII (1-543) (62,408 Da) was diluted in assay buffer; conditions: 7.5 nM ROCKII (1-543), 750 nM ATP
Experimental: 1. Luciferin-Luciferase Assay
The activity of ROCKII (1-543) kinase was measured utilizing Cambrex PKLight ATP Detection Reagent, a homogeneous assay technology using luciferin-luciferase to quantify residual ATP. The assay was performed in 384-well low-volume, white, non-binding surface microtiter plates (Corning). The assay buffer was 25 mM HEPES, pH 7.5, 10 mM MgCl2, 50 mM KCl, 0.2% BSA, 0.01% CHAPS, 100 μM Na3VO4 and 0.5 mM DTT. Test compounds, dissolved in neat DMSO at 500 μg/mL, were serially diluted for dose response for a final starting concentration of 3 μg/mL in 1% DMSO of assay buffer. ROCKII (1-543) (62,408 Da) was diluted in assay buffer to a final concentration of 7.5 nM in a total volume of 15 μL. Positive controls were reaction mixtures containing no test compound; negative controls (blanks) were reaction mixtures containing no kinase. After 15 minutes of pre-incubation of the test compounds with the kinase, a mixture of ATP and peptide substrate (AKRRRLSSLRA) in assay buffer was added to each well for a final concentration of 750 nM ATP and 500 nM peptide, respectively. After 90 minutes of incubation of the kinase reaction at 28° C. temperature, 10 μL of PKLight ATP Detection Reagent (warmed to room temperature previously) was added to each well. The assay plate was incubated at room temperature for additional 15 minutes and then read on an Analyst in luminescence mode. Dose-response experiments for each of the test compounds were conducted in quadruplet. IC50 values of test compounds represent 50% response of the positive control from the dose-response curve.
Target sequence in this assay (O75116 1-543): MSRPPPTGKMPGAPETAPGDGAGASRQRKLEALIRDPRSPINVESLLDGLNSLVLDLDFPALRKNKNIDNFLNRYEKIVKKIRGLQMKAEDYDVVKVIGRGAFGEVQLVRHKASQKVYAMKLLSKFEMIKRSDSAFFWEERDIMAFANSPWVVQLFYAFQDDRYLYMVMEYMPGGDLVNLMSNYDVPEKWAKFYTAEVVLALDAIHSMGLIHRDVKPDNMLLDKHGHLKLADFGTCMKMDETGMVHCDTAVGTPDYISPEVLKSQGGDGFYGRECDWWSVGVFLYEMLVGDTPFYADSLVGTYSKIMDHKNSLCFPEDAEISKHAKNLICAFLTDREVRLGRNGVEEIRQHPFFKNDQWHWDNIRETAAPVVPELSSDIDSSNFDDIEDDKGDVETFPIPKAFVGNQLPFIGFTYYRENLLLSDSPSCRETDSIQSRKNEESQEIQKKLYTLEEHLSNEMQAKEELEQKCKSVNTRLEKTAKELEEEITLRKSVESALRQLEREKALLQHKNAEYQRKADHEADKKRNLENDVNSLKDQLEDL

[2] = target: T1, ROCKII (1-543); assay: IMAP Assay (fluorescence polarization, FAM S6 peptide); assay type: biochemical; parameters: 3 nM ROCKII (1-543) diluted in kinase reaction buffer; conditions: IMAP FP, 1 nM ROCKII (1-543), 100 μM ATP; read-out: Assay 2 IC50
Experimental: This assay is performed using FAM S6 substrate peptide (Catalogue #R7184) and IMAP FP Screening Express Kit detection reagents from Molecular Devices (Sunnyvale, Calif.) in IMAP kinase reaction buffer (Tris-HCl, pH 7.2, 10 mM MgCl2, 0.05% NaN3, 0.1% phosphate-free BSA) containing 1 mM DTT. Test compounds dissolved in neat DMSO at 0.3 mg/mL are serially diluted 1 to 3 for concentration response in 100% DMSO. The DMSO serial dilutions are further diluted 33.33-fold in kinase reaction buffer, and 10 μL of this buffer dilution is transferred to Corning black 96-well half area NBS plates for a final top concentration of 3 μg/mL in 1% DMSO. 10 μL aliquot of 3 nM ROCKII (1-543) diluted in kinase reaction buffer is added to each assay well for a final concentration of 1 nM kinase. 10 μL of a mixture of 600 nM FAM S6 peptide and 300 μM ATP diluted in kinase reaction buffer is added to each well for a final concentration of 200 nM peptide and 100 μM ATP. The kinase reaction mixture is incubated for 60 minutes at room temperature. Positive controls are reaction mixtures containing no test compound and negative controls (blanks) are reaction mixtures containing no kinase. The kinase reaction is stopped by addition of 60 μL IMAP progressive binding reagent (Catalog #R7284) diluted 400-fold in 1× Binding buffer A. After 30 min of incubation at room temperature, the plates are read for fluorescence polarization on Analyst Plate Reader using Ex 485 nm, Em 530 nm, and FL 505 dichroic mirror. The mP signals are converted to percent of control (POC) values using the formula: POC=100*(Signal−BCTRL)÷(PCTRL−BCTRL)
Where Signal is the test well signal, BCTRL is the average of background (negative control) well signals on the plate and PCTRL is the average of positive control well signals on the plate. For the concentration-responsive compounds, POC as a function of test compound concentration is fitted to a 4-parameter logistic equation of the form: Y=A+(B−A)/[1+(x/C)D]
Where A, B, C, and D are fitted parameters (parameter B is fixed at zero POC), and x and y are the independent and dependent variables, respectively. The IC50 is determined as the inflection point parameter, C.
Target sequence in this assay (O75116 1-543, species assumed): as the sequence (O75116 1-543) above

[3] = system: Dahl salt-sensitive rats; conditions: congestive heart failure; cited from earlier work
[4] = system: spontaneously hypertensive rat, renal hypertensive rat and deoxycortisone acetate salt hypertensive rat models; conditions: cited from earlier work
[5] = system: neointimal formation in rats; conditions: balloon injury model; cited from earlier work
[6] = system: rat stroke model; conditions: cited from earlier work
[7] = system: IL-1 beta-induced coronary stenosis; conditions: porcine, long term treatment; cited from earlier work

## CN(CCC(F)(F)F)[C@H]1CCc2nc(NC(=O)c3cccc(Cn4cc(-c5ccc(C#N)cc5)cn4)c3)sc2C1 [Compound 30, 3-[4-(4-Cyano-phenyl)-pyrazol-1-ylmethyl]-N-{(S)-6-[methyl-(3,3,3-trifluoro-propyl)-amino]-4,5,6,7-tetrahydro-benzothiazol-2-yl}-benzamide]
[1]
  IC50: 2.1 nM
[2]
  IC50: 7.3 nM

## CN(CCC#N)[C@H]1CCc2nc(NC(=O)c3cccc(Cn4cc(-c5ccc(C#N)cc5)nn4)c3)sc2C1 [Compound 32, N-{(S)-6-[(2-Cyano-ethyl)-methyl-amino]-4,5,6,7-tetrahydro-benzothiazol-2-yl}-3-[4-(4-cyano-phenyl)-[1,2,3]triazol-1-ylmethyl]-benzamide]
[1]
  IC50: 2.9 nM
[2]
  IC50: 2 nM

## N#Cc1ccc(-c2nnc(Cc3cccc(C(=O)Nc4nc5c(s4)C[C@@H](N4CCOCC4)CC5)c3)o2)cc1 [Compound 40, 3-[5-(4-Cyano-phenyl)-1,3,4-oxadiazol-2-ylmethyl]-N—((S)-6-morpholin-4-yl-4,5,6,7-tetrahydro-benzothiazol-2-yl)-benzamide]
[1]
  IC50: 3.2 nM
[2]
  IC50: 12 nM

## N#Cc1ccc(-c2cn(Cc3cccc(C(=O)Nc4nc5c(s4)CC(N4CCC(F)(F)CC4)CC5)c3)nn2)cc1 (stereo not drawn) [Compound 41, 3-[4-(4-Cyano-phenyl)-1,2,3-triazol-1-ylmethyl]-N-[6-(4,4-difluoro-piperidin-1-yl)-4,5,6,7-tetrahydro-benzothiazol-2-yl]-benzamide]
[1]
  IC50: 7.1 nM
[2]
  IC50: 5.8 nM

## N#Cc1ccc(-c2cn(Cc3cccc(C(=O)Nc4nc5c(s4)CC(N4CCC(F)CC4)CC5)c3)nn2)cc1 (stereo not drawn) [Compound 42, 3-[4-(4-Cyano-phenyl)-1,2,3-triazol-1-ylmethyl]-N-[6-(4-fluoro-piperidin-1-yl)-4,5,6,7-tetrahydro-benzothiazol-2-yl]-benzamide]
[1]
  IC50: 3.4 nM
[2]
  IC50: 1.1 nM

## N#Cc1ccc(-c2cn(Cc3cccc(C(=O)Nc4nc5c(s4)C[C@@H](N4CCCCC4)CC5)c3)nn2)cc1 [Compound 44, 3-[4-(4-Cyano-phenyl)-1,2,3-triazol-1-ylmethyl]-N—((S)-6-piperidin-1-yl-4,5,6,7-tetrahydro-benzothiazol-2-yl)-benzamide]
[1]
  IC50: 2.4 nM
[2]
  IC50: 0.53 nM

## COCCN[C@H]1CCc2nc(NC(=O)c3cccc(Cn4cc(-c5ccc(C#N)cc5)cn4)c3)sc2C1 [Compound 45, 3-[4-(4-Cyano-phenyl)-pyrazol-1-ylmethyl]-N—[(S)-6-(2-methoxy-ethylamino)-4,5,6,7-tetrahydro-benzothiazol-2-yl]-benzamide]
[1]
  IC50: 2.1 nM
[2]
  IC50: 0.35 nM

## COCCN(C)[C@H]1CCc2nc(NC(=O)c3cccc(Cn4cc(-c5ccc(C#N)cc5)nn4)c3)sc2C1 [Compound 49, 3-[4-(4-Cyano-phenyl)-[1,2,3]triazol-1-ylmethyl]-N-{(S)-6-[(2-methoxy-ethyl)-methyl-amino]-4,5,6,7-tetrahydro-benzothiazol-2-yl}-benzamide]
[1]
  IC50: 1.7 nM
[2]
  IC50: 0.73 nM

## COCCN(CCOC)[C@H]1CCc2nc(NC(=O)c3cccc(Cn4cc(-c5ccc(C#N)cc5)nn4)c3)sc2C1 [Compound 55, N-{(S)-6-[Bis-(2-methoxy-ethyl)-amino]-4,5,6,7-tetrahydro-benzothiazol-2-yl}-3-[4-(4-cyano-phenyl)-[1,2,3]triazol-1-ylmethyl]-benzamide]
[1]
  IC50: 2.3 nM
[2]
  IC50: 6.5 nM

## N#Cc1ccc(-c2nnc(Cc3cccc(C(=O)Nc4nc5c(s4)C[C@@H](N4CCOCC4)CC5)c3)s2)cc1 [Compound 56, 3-[5-(4-Cyano-phenyl)-1,3,4-thiadiazol-2-ylmethyl]-N—((S)-6-morpholin-4-yl-4,5,6,7-tetrahydro-benzothiazol-2-yl)-benzamide]
[1]
  IC50: 2.5 nM
[2]
  IC50: 4 nM

## C[C@@H](N)[C@H]1CC[C@H](C(=O)Nc2ccncc2)CC1 [Compound Y-27632, Y-27632]
[3]
  ventricular hypertrophy and function: improve ventricular hypertrophy and function
[4]; control rats
  effect on blood pressure in control rats: only a minor effect
[4]; spontaneously hypertensive, renal hypertensive, deoxycortisone acetate salt hypertensive rats
  blood pressure in three rat models of hypertension: significantly decrease blood pressure
[5]
  neointimal formation: inhibited neointimal formation

## O=S(=O)(c1cccc2cnccc12)N1CCCNCC1 [fasudil]
[6]
  infarct size and neurologic deficit: reduce both the infarct size and neurologic deficit
[7]
  coronary constrictive remodeling: promote a regression of coronary constrictive remodeling
  coronary stenosis: progressively reduce coronary stenosis
